Key:
[1] = system: glucose-6-phosphate dehydrogenase in human fibroblasts; assay: G6PDH activity in human fibroblasts (in vitro determination of the enzymatic activity); assay type: cell-based; conditions: control = 100; for G6PDH activity after 3 days: 3 days incubation
Description: The G6PDH activity was determined in accordance with the microprocess described by Garidelli de Quincenet in Annual Dermatol. Venereol. 107(12), 1163-1170 (1980). The G6PDH activity was determined in accordance with the process described by Natsuko Okada and Yukio Kitano in: Arch. Dermatol. Res., 271(3): 341-346, 1981 by in vitro determination of the enzymatic activity of the glucose-6-phosphate dehydrogenase in human fibroblasts.
(§1) The DNA content was determined in accordance with the method described by Desaulniers in Toxic. In vitro 12(4), 409-422 (1998). The incubation time of the fibroblasts was in each case 3 days and 6 days. In each case, the average of 4 experiments with triple determination is given.

human fibroblasts = assay: DNA content of the fibroblasts; assay type: cell-based; conditions: control = 100; for DNA content after 3 days: 3 days incubation
Description: as §1

[2] = conc. 0.00003 % by wt., 6 days incubation

SMILES: CC1=C(/C=C/C(C)=C/C=C/C(C)=C/CO)C(C)(C)CCC1 [Retinol]
- G6PDH activity after 3 days ([1]; conc. 0.005 % by wt.): 400 rel-%
- DNA content after 3 days (human fibroblasts; conc. 0.005 % by wt.): 95 rel-%

SMILES: CC1=C(/C=C/C(C)=C/C=C/C(C)=C/C(=O)O)C(C)(C)CCC1 [Retinoic acid]
- G6PDH activity after 3 days ([1]; conc. 0.00003 % by wt.): 134 rel-%
- G6PDH activity after 6 days [1, 2]: 130 rel-%
- DNA content after 3 days (human fibroblasts; conc. 0.00003 % by wt.): 76 rel-%
- DNA content after 6 days (human fibroblasts; [2]): 98 rel-%

SMILES: COc1cc2c(cc1O)C[C@H]1c3c(cc(O)c(OC)c3-2)CCN1C [Boldin index B3916 (Sigma), Boldin]
- G6PDH activity after 3 days ([1]; conc. 0.005 % by wt.): 200 rel-%
- DNA content after 3 days (human fibroblasts; conc. 0.005 % by wt.): 97 rel-%
